Literature values in PMC11451938 (RSC Medicinal Chemistry, 2024).

Target: hNTS1
Details: read-out: NTS1 Ki; CHO-K1 cells expressing hNTS1

In the case of “JMV 438: NT[8-13] in which the Arg8-Arg9 fragment was replaced with Lys8-Lys9”, the Ki is given as 4 nM.
